Source: US10301261B2, “Substituted indoles as modulators of ROR-gamma” (Vitae Pharmaceuticals, LLC, priority 2015, dated 2019)

Assays:
[1] = biological target: recombinant RORγ Ligand Binding Domain (LBD) protein (Homo sapiens (Human), UniProt P51449); assay: Radio-Ligand RORγ Binding Assay (Assay 1); conditions: radio-ligand 25-hydroxy [26,27-3H]-cholesterol competition
Method in brief: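 Cell-free competition with 25-hydroxy[26,27-³H]-cholesterol for the ligand site of 6×His-GST-tagged RORγ LBD; SPA read-out with poly-Lys YSi beads after shaking and incubation at rt. IC50 taken as the inflection point of a four-parameter fit of percent inhibition vs concentration.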

[2] = biological target: full-length RORγt in Jurkat cells (Homo sapiens (Human), UniProt P51449); assay: RORγt 5×RORE Assay in Jurkat Cells (Assay 2); format: cell-based; conditions: RORγt 5×RORE Nanoluc reporter
Sequence of full-length RORγt in Jurkat cells (P51449 other isoform, or with tags, fused parts or gaps): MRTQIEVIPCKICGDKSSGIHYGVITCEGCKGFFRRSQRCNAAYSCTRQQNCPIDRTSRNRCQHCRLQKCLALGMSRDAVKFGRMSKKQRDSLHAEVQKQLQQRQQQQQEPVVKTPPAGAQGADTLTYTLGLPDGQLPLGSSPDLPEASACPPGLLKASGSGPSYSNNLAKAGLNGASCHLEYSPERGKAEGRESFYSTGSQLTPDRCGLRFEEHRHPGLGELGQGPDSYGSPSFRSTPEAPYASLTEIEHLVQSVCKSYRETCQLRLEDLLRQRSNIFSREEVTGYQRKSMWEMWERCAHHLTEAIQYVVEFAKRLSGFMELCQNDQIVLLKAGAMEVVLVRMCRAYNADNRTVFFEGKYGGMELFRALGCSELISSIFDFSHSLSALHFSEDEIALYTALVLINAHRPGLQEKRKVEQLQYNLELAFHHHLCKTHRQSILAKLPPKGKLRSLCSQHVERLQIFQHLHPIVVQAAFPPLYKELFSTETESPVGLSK

Sequence of recombinant RORγ Ligand Binding Domain (LBD) protein (P51449 269-508): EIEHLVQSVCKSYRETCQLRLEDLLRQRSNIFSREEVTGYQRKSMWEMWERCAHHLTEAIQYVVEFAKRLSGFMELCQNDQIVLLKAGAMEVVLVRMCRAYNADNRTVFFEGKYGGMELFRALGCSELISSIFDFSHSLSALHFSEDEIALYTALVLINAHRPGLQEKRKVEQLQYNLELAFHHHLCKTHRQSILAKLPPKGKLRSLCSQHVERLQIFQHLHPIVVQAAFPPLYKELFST

Row | Structure (SMILES) | Ki [1] [nM] | IC50 [2] [nM]
1 | CCn1c(Cc2ccc(Cl)cc2)cc2cc(C(=O)N[C@@H](CO)c3ccc(S(=O)(=O)CC)cn3)ccc21 [IN-8, (R)-2-(4-chlorobenzyl)-1-ethyl-N-(1-(5-(ethylsulfonyl)pyridin-2-yl)-2-hydroxyethyl)-1H-indole-5-carboxamide] | < 100 | 100 to 1000
2 | CCn1c(Cc2ccc(C(F)(F)F)cn2)cc2cc(C(=O)N[C@@H](CO)c3ccc(S(=O)(=O)CC)cc3)ccc21 [IN-9, (R)-1-ethyl-N-(1-(4-(ethylsulfonyl)phenyl)-2-hydroxyethyl)-2-((5-(trifluoromethyl)pyridin-2-yl)methyl)-1H-indole-5-carboxamide] | < 100 | < 100
3 | CCn1c(CN2CCC(C(F)(F)F)CC2)cc2cc(C(=O)N[C@@H](CO)c3ccc(S(=O)(=O)CC)cc3)ccc21 [IN-10, (R)-1-ethyl-N-(1-(4-(ethylsulfonyl)phenyl)-2-hydroxyethyl)-2-((4-(trifluoromethyl)piperidin-1-yl)methyl)-1H-indole-5-carboxamide] | < 100 | < 100
4 | CCn1c(CN2CCC(C(F)(F)F)CC2)cc2cc(C(=O)N[C@@H](CO)c3ccc(S(=O)(=O)CC)cn3)ccc21 [IN-11, (R)-1-ethyl-N-(1-(5-(ethylsulfonyl)pyridin-2-yl)-2-hydroxyethyl)-2-((4-(trifluoromethyl)piperidin-1-yl)methyl)-1H-indole-5-carboxamide] | < 100 | < 100
5 | CCS(=O)(=O)c1ccc(CNC(=O)c2ccc3c(c2)cc(CN2CCC(C(F)(F)F)CC2)n3C2CC2)cc1 [IN-12, 1-cyclopropyl-N-(4-(ethylsulfonyl)benzyl)-2-((4-(trifluoromethyl)piperidin-1-yl)methyl)-1H-indole-5-carboxamide] | < 100 | < 100
6 | CCS(=O)(=O)c1ccc([C@H](CO)NC(=O)c2ccc3c(c2)cc(CN2CCC(C(F)(F)F)CC2)n3C2CC2)cc1 [IN-13, (R)-1-cyclopropyl-N-(1-(4-(ethylsulfonyl)phenyl)-2-hydroxyethyl)-2-((4-(trifluoromethyl)piperidin-1-yl)methyl)-1H-indole-5-carboxamide] | < 100 | < 100
7 | CCn1c(C[C@H]2CC[C@H](C(F)(F)F)CC2)cc2cc(C(=O)NCc3ccc(S(=O)(=O)CC)cn3)ccc21 [IN-15.1, 1-ethyl-N-((5-(ethylsulfonyl)pyridin-2-yl)methyl)-2-(((1r,4r)-4-(trifluoromethyl)cyclohexyl)methyl)-1H-indole-5-carboxamide] | < 100 | < 100
8 | CCn1c(C[C@H]2CC[C@H](C(F)(F)F)CC2)cc2cc(C(=O)N[C@@H](CO)c3ccc(S(=O)(=O)CC)cc3)ccc21 [IN-16.1, 1-ethyl-N-((R)-1-(4-(ethylsulfonyl)phenyl)-2-hydroxyethyl)-2-(((1r,4R)-4-(trifluoromethyl)cyclohexyl)methyl)-1H-indole-5-carboxamide] | < 100 | < 100
9 | CCn1c(C[C@H]2CC[C@H](C(F)(F)F)CC2)cc2cc(C(=O)NCc3ccc(S(=O)(=O)CC)cc3)ccc21 [IN-17.1, 1-ethyl-N-(4-(ethylsulfonyl)benzyl)-2-(((1r,4r)-4-(trifluoromethyl)cyclohexyl)methyl)-1H-indole-5-carboxamide] | < 100 | < 100
10 | CCS(=O)(=O)c1ccc(CNC(=O)c2ccc3c(c2)cc(Cc2ccc(C(F)(F)F)cc2)n3C2CC2)cc1 [IN-18, 1-cyclopropyl-N-(4-(ethylsulfonyl)benzyl)-2-(4-(trifluoromethyl)benzyl)-1H-indole-5-carboxamide] | < 100 | < 100
11 | CCS(=O)(=O)c1ccc([C@H](CO)NC(=O)c2ccc3c(c2)cc(Cc2ccc(C(F)(F)F)cc2)n3C2CC2)nc1 [IN-19, (R)-1-cyclopropyl-N-(1-(5-(ethylsulfonyl)pyridin-2-yl)-2-hydroxyethyl)-2-(4-(trifluoromethyl)benzyl)-1H-indole-5-carboxamide] | < 100 | < 100
12 | CCn1c(Cc2ccc(C#N)cc2)cc2cc(C(=O)N[C@@H](CO)c3ccc(S(=O)(=O)CC)cn3)ccc21 [IN-21, (R)-2-(4-cyanobenzyl)-1-ethyl-N-(1-(5-(ethylsulfonyl)pyridin-2-yl)-2-hydroxyethyl)-1H-indole-5-carboxamide] | < 100 | 100 to 1000
13 | CCn1c(C(=O)c2ccc(C(F)(F)F)cn2)cc2cc(C(=O)N[C@@H](CO)c3ccc(S(=O)(=O)CC)cc3)ccc21 [IN-22, (R)-1-ethyl-N-(1-(4-(ethylsulfonyl)phenyl)-2-hydroxyethyl)-2-(5-(trifluoromethyl)picolinoyl)-1H-indole-5-carboxamide] | < 100 | < 100
